{
  "source": "patent US4026896A",
  "about": "“Aromatic amidocarboxylic acids and pharmaceutical compositions thereof” (Kissei Yakuhin Kogyo Kabushiki Kaisha (Kissei …, priority 1974, dated 1977)",
  "data": [
    {"tested_on": "release of chemical mediators from cells", "assay": "not given", "conditions": "caused by an antigen-antibody reaction; cited from earlier work", "values": [
      {"compound": "O=C(O)c1cc(=O)c2c(OCC(O)COc3cccc4oc(C(=O)O)cc(=O)c34)cccc2o1", "note": "[disodium chromoglycate]", "inhibiting release of chemical mediators from cells": "effective for inhibiting release of chemical mediators from cells"}
    ]},
    {"tested_on": "experimental anaphylaxis / antiallergic effect", "assay": "not given", "conditions": "oral, mammalia; known reference compounds; cited from earlier work", "values": [
      {"compound": "cinnamoylaminobenzoic acid [unsubstituted cinnamoylaminobenzoic acid]", "antiallergic effect when administered orally": "only a slightly weak antiallergic effect"},
      {"compound": "O=C(O)c1cc(=O)c2c(OCC(O)COc3cccc4oc(C(=O)O)cc(=O)c34)cccc2o1", "note": "[disodium chromoglycate]", "antiallergic effect when administered orally": "not at all expected when this compound is administered orally"}
    ]},
    {"tested_on": "homologous passive cutaneous anaphylaxis (PCA)", "assay": "Homologous passive cutaneous anaphylaxis (PCA) in rats, test compounds given orally", "type": "in vivo, Wistar male rats", "conditions": "po; rat, 200 mg/kg p.o., 2 hours prior to injection of antigen and Evans blue; read-out: INHIBITION (%) of PCA (amount of dye leaked vs control group)", "description": "(§1) \"Homologous passive cutaneous anaphylaxis (PCA) in rats.\"\n(§2) Wistar male rats weighing from 120 to 150 g were used in the present experiment. Reaginic antibody was obtained from rats immunized with 2,4-dinitrophenyl-coupled ascaris extract (DNP-As) mixed with Bordetella pertussis. Normal rats were sensitized passively with an intradermal injection of the diluted antiserum. After 48 hours of the sensitization, the mixture of antigen (DNP-As) and Evans blue was injected intravenously. The animals were sacrificed by a blow on the head 30 minutes after challenging with antigen. The area blued as a result of PCA was excised and the amount of dye leaked was measured photometrically after the extraction of same with acetone containing sodium carbonate.\n(§3) The test compounds were suspended in 0.5% aqueous solution of sodium carboxymethylcellulose (CMC) and administered 200 mg/kg p.o. 2 hours prior to the injection of a mixture of antigen and Evans blue. […] The efficacy of the test compounds to inhibit the PCA was compared with the value (%) calculated using the following formula: [formula] A: Amount of dye leaked in the control group B: Amount of dye leaked in the group treated with test compound", "units": {"inhibition in vivo at 200 mg/kg": "%"}, "values": [
      {"compound": "COc1ccc(C=CC(=O)Nc2ccccc2CCC(=O)O)cc1OC", "note": "[β-[2-(3',4'-dimethoxycinnamoylamino)]phenylpropionic]", "inhibition in vivo at 200 mg/kg": 27},
      {"compound": "COc1ccc(C=CC(=O)Nc2ccccc2OCC(=O)O)cc1OC", "note": "[2-(3',4'-dimethoxycinnamoylamino)phenoxyacetic acid]", "inhibition in vivo at 200 mg/kg": 42.6},
      {"compound": "O=C(C=Cc1ccccc1)Nc1ccc(C(=O)O)cc1", "note": "[4-(cinnamoylamino)benzoic acid, reference compound]", "inhibition in vivo at 200 mg/kg": 7.5},
      {"compound": "COc1ccc(C(C)=CC(=O)Nc2ccccc2CC(=O)O)cc1OC", "note": "[2-(3',4'-dimethoxy-β-methylcinnamoylamino)phenylacetic]", "inhibition in vivo at 200 mg/kg": 37.3},
      {"compound": "COc1ccc(CCC(=O)Nc2ccccc2OCC(=O)O)cc1OC", "note": "[2-(3',4'-dimethoxyhydrocinnamoylamino)phenoxyacetic acid]", "inhibition in vivo at 200 mg/kg": 25.9},
      {"compound": "OCC(O)COc1ccc(Cl)cc1", "note": "(stereo not shown) [chlorphenesin, reference compound]", "inhibition in vivo at 200 mg/kg": 39.7},
      {"compound": "COc1ccc(C=CC(=O)Nc2cccc(CCC(=O)O)c2)cc1OC", "note": "[β-[3-(3',4'-dimethoxycinnamoylamino)]phenylpropionic]", "inhibition in vivo at 200 mg/kg": 47.2},
      {"compound": "CCCOc1ccc(C=CC(=O)Nc2ccccc2OCC(=O)O)cc1OC", "note": "[2-(3'-methoxy,4'-propoxycinnamoylamino)phenoxyacetic acid]", "inhibition in vivo at 200 mg/kg": 32.1},
      {"compound": "COc1ccc(C=CC(=O)Nc2ccccc2CC(=O)O)cc1OC", "note": "[2-(3',4'-dimethoxycinnamoylamino)phenylacetic acid]", "inhibition in vivo at 200 mg/kg": 63.9},
      {"compound": "O=C(O)Cc1ccccc1NC(=O)C=Cc1ccc(Cl)cc1", "note": "[2-(4'-chlorocinnamoylamino)phenylacetic acid]", "inhibition in vivo at 200 mg/kg": 53.3},
      {"compound": "O=C(O)Cc1ccc(NC(=O)C=Cc2ccc(O)cc2)cc1", "note": "[4-(4'-hydroxycinnamoylamino)phenylacetic acid]", "inhibition in vivo at 200 mg/kg": 34.3},
      {"compound": "O=C(C=Cc1ccccc1)Nc1cccc(C(=O)O)c1", "note": "[3-(cinnamoylamino)benzoic acid, reference compound]", "inhibition in vivo at 200 mg/kg": 10.8},
      {"compound": "O=C(C=Cc1ccccc1)Nc1ccccc1C(=O)O", "note": "[N-cinnamoyl-anthranilic acid, reference compound]", "inhibition in vivo at 200 mg/kg": 18.1},
      {"compound": "O=C(O)Cc1cccc(NC(=O)C=Cc2ccccc2)c1", "note": "[3-(cinnamoylamino)phenylacetic acid]", "inhibition in vivo at 200 mg/kg": 39.8}
    ]},
    {"tested_on": "homologous passive cutaneous anaphylaxis (PCA)", "assay": "Homologous passive cutaneous anaphylaxis (PCA) in rats, test compounds given orally", "type": "in vivo, Wistar male rats", "conditions": "rat, 200 mg/kg p.o., 2 hours prior to injection of antigen and Evans blue", "description": "as §1, §2, §3", "units": {"INHIBITION (%) of PCA (amount of dye leaked vs control group)": "%"}, "values": [
      {"compound": "COc1ccc(C=CC(=O)Nc2ccc(CC(=O)O)cc2)cc1", "note": "[4-(4'-methoxy-β-cinnamoylamino)phenylacetic acid]", "INHIBITION (%) of PCA (amount of dye leaked vs control group)": 85.3},
      {"compound": "Cc1ccc(C=CC(=O)Nc2ccc(OCC(=O)O)cc2)cc1", "note": "[β-[4-(4'-methylcinnamoylamino)]phenoxyacetic acid]", "INHIBITION (%) of PCA (amount of dye leaked vs control group)": 75.9}
    ]}
  ]
}
